# Results from patent US10072034B2, “Kinase inhibitors” (Respivert Limited, priority 2016, dated 2018).
# Structures can show the parent of a compound that is named as a salt. Where two headings read alike, the source gives them in different places.
# Assays:
# [1] = Solubility in fasted-state simulated colonic fluid (FaSSCoF) at pH 6.5; assay type: physicochemical; conditions: pH 6.5, 25° C.; for solubility thermodynamic at 24 h: fasted-state simulated colonic fluid (FaSSCoF), 25 °C, pH 6.5, fassgf or other biorelevant, thermodynamic from solid
# Method: The solubilities of compounds of the invention in FaSSCoF at pH 6.5 are determined using a modification of a previously-reported procedure (Vertzoni, M., et al. Pharm. Res. 2010, 27, 2187-2196). In place of the bile salt extract employed in the original procedure (which extract is no longer available), the modified procedure uses a mixture of sodium taurocholate (0.15 g), glycocholic acid (0.15 g), ursodeoxycholic acid (0.05 g), cholic acid (0.05 g), and glycodeoxycholic acid (0.05 g). These five bile acids are ground together with a mortar and pestle to produce a fine white powder that is incorporated into the FaSSCoF, as outlined below.
# FaSSCoF medium: Tris(hydroxymethyl)aminomethane (Tris; 0.275 g) and maleic acid (0.44 g) are dissolved in water (35 mL) to give a solution whose pH is adjusted to 6.5 by treatment with 0.5M NaOH (ca. 12 mL). The solution is then made up to 50 mL with water. A portion of this Tris/maleate buffer solution (ca. 25 mL) is added to a 0.5 L round-bottomed flask, before being treated with 0.00565 g of the bile acid mixture described above. Solutions of phosphatidylcholine (0.0111 g) in DCM (0.15 mL) and palmitic acid (0.0013 g) in DCM (0.15 mL) are added, then the organic solvent is evaporated off under reduced pressure at 40° C. until a clear solution, with no perceptible DCM odour, is achieved. The volume of the evaporated solution is adjusted to 50 mL by addition of the remainder of Tris/maleate buffer, then BSA (0.115 g) is added, before being dissolved by gentle agitation.
# Solubility Determination: Test compounds are suspended in the pH 6.5 FaSSCoF medium to give a maximum final concentration of 2-10 mg/mL. The suspensions are equilibrated at 25° C. for 24 h, before being filtered through a glass fibre C filter. The filtrates are then diluted as appropriate for injection and quantification by HPLC with reference to a standard. Different volumes of the standard, diluted and undiluted sample solutions are injected and the solubilities are calculated using the peak areas determined by integration of the peak found at the same retention time as the principal peak in the standard injection.
# IL-8 release in PBMCs = assay: LPS-induced IL-8 release in PBMC cells (assay (b)); assay type: cell-based; conditions: Homo sapiens, LPS-stimulated PBMCs
# Text: Peripheral blood mononuclear cells (PBMCs) from healthy subjects are separated from whole blood using a density gradient (Lymphoprep, Axis-Shield Healthcare). […] The supernatant is harvested for determination of IL-8 and TNFα concentrations by sandwich ELISA (Duo-set, R&D systems) and read on the fluorescence microplate reader (Varioskan® Flash, ThermoFisher Scientific).
# [2] = Run 1, read-out: pH 6.5 FaSSCoF Solubility Run 1
# [3] = Run 2, read-out: pH 6.5 FaSSCoF Solubility Run 2
SMILES,IC50 (IL-8 release in PBMCs) [nM],further results
"COc1cc(Nc2cc(Oc3ccc(NC(=O)Nc4cc(C(C)(C)C)cc(NS(C)(=O)=O)c4OC)c4ccccc34)ccn2)cc(OCCOCCOC(C)C(=O)O)c1 (single isomer, unassigned) [20(a)]",–,"solubility thermodynamic at 24 h [1, 2]: 620 µg/mL; solubility thermodynamic at 24 h [1, 3]: 640 µg/mL"
"COc1cc(Nc2cc(Oc3ccc(NC(=O)Nc4cc(C(C)(C)C)cc(NS(C)(=O)=O)c4OC)c4ccccc34)ccn2)cc(C(=O)NCCOCCOCC(=O)O)c1 [Example 1, 2-(2-(2-(3-((4-((4-(3-(5-(tert-Butyl)-2-methoxy-3-(methylsulfonamido)phenyl)ureido)-naphthalen-1-yl)oxy)pyridin-2-yl)amino)-5-methoxybenzamido)ethoxy)ethoxy)acetic acid, hydrochloride salt]",115,–
"[2H]C([2H])([2H])Oc1c(NC(=O)Nc2ccc(Oc3ccnc(Nc4cc(OC)cc(OCCOCCOCC(=O)O)c4)c3)c3ccccc23)cc(C(C)(C)C)cc1NS(C)(=O)=O [Example 5, 2-(2-(2-(3-((4-((4-(3-(5-(tert-Butyl)-2-(methoxy-d3)-3-(methylsulfonamido)phenyl)ureido)-naphthalen-1-yl)oxy)pyridin-2-yl)amino)-5-methoxyphenoxy)ethoxy)ethoxy)acetic acid]",19.5,–
COc1cc(Nc2cc(Oc3ccc(NC(=O)Nc4cc(C(C)(C)C)cc(NS(C)(=O)=O)c4OC)c4ccccc34)ccn2)cc(OCCOCCOCC(=O)NS(C)(=O)=O)c1 [Example 6],18.1,–
"COc1cc(Nc2cc(Oc3ccc(NC(=O)Nc4cc(C(C)(C)C)cc([S+](C)[O-])c4OC)c4ccccc34)ccn2)cc(OCCOCCOCC(=O)O)c1 (centres unmarked) [Example 8, 2-(2-(2-(3-((4-((4-(3-(5-(tert-Butyl)-2-methoxy)-3-(methylsulfinyl)phenylureido)naphthalen-1-yl)oxy)pyridin-2-yl)amino)-5-methoxyphenoxy)ethoxy)ethoxy)acetic acid]",8,"solubility thermodynamic at 24 h [1, 2]: 2800 µg/mL; solubility thermodynamic at 24 h [1, 3]: 3200 µg/mL"
"COc1cc(Nc2cc(Oc3ccc(NC(=O)Nc4cc(C(C)(C)C)cc(S(C)(=O)=O)c4OC)c4ccccc34)ccn2)cc(OCCOCCOCC(=O)O)c1 [Example 9, 2-(2-(2-(3-((4-((4-(3-(5-(tert-Butyl)-2-methoxy-3-(methylsulfonyl)phenyl)ureido)naphthalen-1-yl)oxy)pyridin-2-yl)amino)-5-methoxphenoxy)ethoxy)ethoxy)acetic acid]",11.7,"solubility thermodynamic at 24 h [1, 2]: 460 µg/mL; solubility thermodynamic at 24 h [1, 3]: 540 µg/mL"
"COc1cc(Nc2cc(Oc3ccc(NC(=O)Nc4cc(C(C)(C)C)cc(P(C)(C)=O)c4OC)c4ccccc34)ccn2)cc(OCCOCCOCC(=O)O)c1 [Example 10, 2-(2-(2-(3-((4-((4-(3-(5-(tert-Butyl)-3-(dimethylphosphoryl)-2-methoxyphenyl)ureido)-naphthalen-1-yl)oxy)pyridin-2-yl)amino)-5-methoxyphenoxy)ethoxy)ethoxy)acetic acid]",26.5,–
"COc1cc(Nc2cc(Oc3ccc(NC(=O)Nc4cc(C(C)(C)C)cc(NS(C)(=O)=O)c4OC)c4ccccc34)ccn2)cc(OCCOCc2cc(C(=O)O)co2)c1 [Example 12, 5-((2-(3-((4-((4-(3-(5-(tert-Butyl)-2-methoxy-3-(methylsulfonamido)phenyl)ureido)naphthalen-1 yl)oxy)pyridin-2-yl)amino)-5-methoxyphenoxy)ethoxy)methyl)furan-3-carboxylic acid]",5.6,–
"COc1cc(Nc2cc(Oc3ccc(NC(=O)Nc4cc(C(C)(C)C)cc(NS(C)(=O)=O)c4OC)c4ccccc34)ccn2)cc(OCCOCC2CC(C(=O)O)CO2)c1 (centres unmarked) [Example 13, 5-((2-(3-((4-((4-(3-(5-(tert-Butyl)-2-methoxy-3-methylsulfonamido)phenylureido)naphthalen-1-yl)oxy)pyridin-2-yl)amino)-5-methoxyphenoxy)ethoxy)methyl)tetrahydrofuran-3-carboxylic acid]",2.8,–
COc1cc(Nc2cc(Oc3ccc(NC(=O)Nc4cc(C(C)(C)C)cc(NS(C)(=O)=O)c4OC)c4ccccc34)ccn2)cc(OCCOCCOC(C)C(=O)O)c1 (centres unmarked) [Example 14],–,"solubility thermodynamic at 24 h [1, 2]: 1200 µg/mL; solubility thermodynamic at 24 h [1, 3]: 1100 µg/mL"
CCS(=O)(=O)c1cc(C(C)(C)C)cc(NC(=O)Nc2ccc(Oc3ccnc(Nc4cc(OC)cc(OCCOCCOCC(=O)O)c4)c3)c3ccccc23)c1OC [Example 15],16.4,–
CCS(=O)(=O)Nc1cc(C(C)(C)C)cc(NC(=O)Nc2ccc(Oc3ccnc(Nc4cc(OC)cc(OCCOCCOCC(=O)O)c4)c3)c3ccccc23)c1OC [Example 16],16.3,–
"COc1cc(Nc2cc(Oc3ccc(NC(=O)Nc4cc(C(C)(C)C)on4)c4ccccc34)ccn2)cc(OCCOCCOCC(=O)O)c1 [Example 17, 2-(2-(2-(3-((4-((4-(3-(5-(tert-Butyl)isoxazol-3-yl)ureido)naphthalen-1-yl)oxy)pyridin-2-yl)amino)-5-methoxyphenoxy)ethoxy)ethoxy)acetic acid]",–,"solubility thermodynamic at 24 h [1, 2]: 1700 µg/mL; solubility thermodynamic at 24 h [1, 3]: 1500 µg/mL"
COc1cc(Nc2cc(Oc3ccc(NC(=O)Nc4cc(C(C)(C)C)cc(NS(C)(=O)=O)c4OC)c4ccccc34)ccn2)cc(OCCOCCOCc2cc(=O)o[nH]2)c1 [Example 18],29.3,–
"COc1cc(Nc2cc(Oc3ccc(NC(=O)Nc4cc(C(C)(C)C)cc(NS(C)(=O)=O)c4OC)c4ccccc34)ccn2)cc(OCCOCCSCC(=O)O)c1 [Example 19, 2-((2-(2-(3-((4-((4-(3-(5-(tert-Butyl)-2-methoxy-3-(methylsulfonamido)phenyl)ureido)-naphthalen-1-yl)oxy)pyridin-2-yl)amino)-5-methoxyphenoxy)ethoxy)ethyl)thio)acetic acid]",2.9,"solubility thermodynamic at 24 h [1, 2]: 30 µg/mL; solubility thermodynamic at 24 h [1, 3]: 30 µg/mL"
COc1cc(Nc2cc(Oc3ccc(NC(=O)Nc4cc(C(C)(C)C)cc(NS(C)(=O)=O)c4OC)c4ccccc34)ccn2)cc(OCCOCCOC(C)(C)C(=O)O)c1 [Example 21],14.4,–
COc1cc(Nc2cc(Oc3ccc(NC(=O)Nc4cc(C(C)(C)C)cc(NS(C)(=O)=O)c4OC)c4ccccc34)ccn2)cc(OCCOCCn2cc(C(=O)O)cn2)c1 [Example 22],18.1,–
COc1cc(Nc2cc(Oc3ccc(NC(=O)Nc4cc(C(C)(C)C)cc(NS(C)(=O)=O)c4OC)c4ccccc34)ccn2)cc(OCCOCC(=O)O)c1 [Example 24],61.9,–
COc1cc(Nc2cc(Oc3ccc(NC(=O)Nc4cc(C(C)(C)C)cc(NS(C)(=O)=O)c4OC)c4ccccc34)ccn2)cc(OCCOCCOCC(=O)NS(=O)(=O)N(C)C)c1 [Example 25],26.3,–
COc1cc(Nc2cc(Oc3ccc(NC(=O)Nc4cc(C(C)(C)C)cc(NS(C)(=O)=O)c4OC)c4ccccc34)ccn2)cc(OCCOCc2ccc(C(=O)O)s2)c1 [Example 26],15.3,–
COc1cc(Nc2cc(Oc3ccc(NC(=O)Nc4cc(C(C)(C)C)cc(NS(C)(=O)=O)c4OC)c4ccccc34)ccn2)cc(OCCOCc2cc(C(=O)O)cs2)c1 [Example 27],7.3,–
COc1c(NC(=O)Nc2ccc(Oc3ccnc(Nc4cc(OCCOCCOCC(=O)O)cc(OC(F)F)c4)c3)c3ccccc23)cc(C(C)(C)C)cc1NS(C)(=O)=O [Example 28],20.6,–
"COc1cc(Nc2nccc(Oc3ccc(NC(=O)Nc4cc(C(C)(C)C)cc(NS(C)(=O)=O)c4OC)c4ccccc34)n2)cc(OCCOCCOCCC(=O)O)c1 [Reference Compound A (sodium salt), reference compound]",–,"solubility thermodynamic at 24 h ([1]; Run 3, read-out: pH 6.5 FaSSCoF Solubility Run 3): 30 µg/mL; solubility thermodynamic at 24 h ([1]; Run 4, read-out: pH 6.5 FaSSCoF Solubility Run 4): 30 µg/mL; pH 6.5 FaSSCoF Solubility Run 1 ([1]; 24 h, Run 1): 0.18 mg/mL; pH 6.5 FaSSCoF Solubility Run 2 ([1]; 24 h, Run 2): 0.12 mg/mL"
